Values quoted from earlier work, collected in patent US20060069068A1, “Methods and compositions for the treatment of diseases characterized by pathological calcification” (Nanobac Pharmaceuticals, Inc., priority 2004, published 2006).

Columns and labels:
[1] = both in vitro and in vivo; comparator etidronate
[2] = system: Nanobacteria; conditions: background statement

| Compound | potency relative to etidronate [1] | killing of Nanobacteria [2] |
| --- | --- | --- |
| NCCCC(O)(P(=O)(O)O)P(=O)(O)O [alendronate] | approximately 700 fold | – |
| Penicillin | – | cannot be killed |
